The record followed here is US10544140B2, “Pharmaceutical composition containing, as active ingredient, 7-azaindolin-2-one derivative or pharmaceutically acceptable salt thereof” (LG CHEM, LTD., priority 2015, dated 2020).

A short description of data set [1]: Cytotoxicity test by MTT assay, HEK293 normal cell line. The data set is classed as cell-based. Conditions: human, HEK293 cells (normal cell line). On the procedure: (§1) A cytotoxicity test was measured by MTT assay. Each cell line was cultured in a 96-well plate at a density of 1×10^4 cells/well. After 24 hours, the culture medium containing 1% FBS (fetal bovine serum) was treated and reacted with compounds or solutions of compounds for 48 hours. MTT (3-(4,5-dimethylthiazol-2-yl)-2,5-diphenyltetrazolium bromide) solution (5 mg/mL) was added to each well and reacted for 4 hours in an incubator. […] After reacting in an incubator for 30 minutes, the formation of formazan was quantified using a microplate reader at an absorbance of 540 nm.
(Tetrazolium assays rely on reduction of a dye to a coloured formazan, in cell work by metabolically active cells.)

In data set [2] the test system is PANC-1 (human pancreatic cancer cell line). Kind of data set: Cytotoxicity test by MTT assay, PANC-1. The format is cell-based. Conditions: for cytotoxicity at 30 µM / IC50: Homo sapiens; for cytotoxicity at 30 µM: PANC-1, 30 μM, 48 h, read-out: Cell viability (% inhibition); for IC50: PANC-1, 48 h. As to the method: (§2) A cytotoxicity test was measured by MTT assay. Each cell line was cultured in a 96-well plate at a density of 1×10^4 cells/well. […] MTT (3-(4,5-dimethylthiazol-2-yl)-2,5-diphenyltetrazolium bromide) solution (5 mg/mL) was added to each well and reacted for 4 hours in an incubator. […] After reacting in an incubator for 30 minutes, the formation of formazan was quantified using a microplate reader at an absorbance of 540 nm. […] At this time, sunitinib was used as a control group. […] The human cancer cell lines used herein are MCF-7 (breast cancer), MDA-MB-231 (breast cancer), HT-29 (colon cancer), DU145 (prostate cancer), U937 (myeloid leukemia), A549 (lung cancer), PANC-1 (pancreatic cancer) and MIA PaCa-2 (pancreatic cancer).

Data set [3] deals with MCF-7 (human breast cancer cell line). As to the kind of experiment: Cytotoxicity test by MTT assay, MCF-7. The format is cell-based. The following applies: for cytotoxicity at 30 µM / IC50: Homo sapiens, MCF7; for cytotoxicity at 30 µM: MCF-7, 30 μM, 48 h, read-out: Cell viability (% inhibition); for IC50: MCF-7, 48 h. On the procedure:
as §2

The test system of data set [4] is HT-29 (colon cancer). Kind of data set: Cytotoxicity test by MTT assay, HT-29. The data set is classed as cell-based, human. The following applies: Homo sapiens, HT-29, 48 h. On the procedure:
(§3) A cytotoxicity test was measured by MTT assay. Each cell line was cultured in a 96-well plate at a density of 1×10^4 cells/well. After 24 hours, the culture medium containing 1% FBS (fetal bovine serum) was treated and reacted with compounds or solutions of compounds for 48 hours. MTT (3-(4,5-dimethylthiazol-2-yl)-2,5-diphenyltetrazolium bromide) solution (5 mg/mL) was added to each well and reacted for 4 hours in an incubator. […] After reacting in an incubator for 30 minutes, the formation of formazan was quantified using a microplate reader at an absorbance of 540 nm. […] The human cancer cell lines used herein are MCF-7 (breast cancer), MDA-MB-231 (breast cancer), HT-29 (colon cancer), DU145 (prostate cancer), U937 (myeloid leukemia), A549 (lung cancer), PANC-1 (pancreatic cancer) and MIA PaCa-2 (pancreatic cancer).

Data set [5] in a line: Cytotoxicity test by MTT assay, CHO-K1 normal cell line. Conditions: Chinese hamster, CHO-K1 cells (normal cell line). The format is cell-based. On the procedure:
as §1

Data set [6] concerns A549 (lung cancer). Kind of data set: Cytotoxicity test by MTT assay, A549. The format is cell-based, human. The following applies: Homo sapiens, A549, 48 h. On the procedure: as §3
The test system of data set [7] is DU145 (prostate cancer). As to the kind of experiment: Cytotoxicity test by MTT assay, DU145. The following applies: DU-145; for IC50: Homo sapiens, DU145, 48 h. The data set is classed as cell-based, human. On the procedure: as §3
For data set [8], the system named is U937 (myeloid leukemia). Kind of data set: Cytotoxicity test by MTT assay, U937. The data set is classed as cell-based, human. Conditions: Homo sapiens, U-937; U937, 48 h. On the procedure: as §3
Data set [9] deals with MDA-MB-231 (breast cancer). As to the kind of experiment: Cytotoxicity test by MTT assay, MDA-MB-231. The format is cell-based, human. The following applies: Homo sapiens, MBA-MB-231, 48 h. On the procedure: as §3

One may read the IC50 as the concentration at which inhibition is half-maximal. In the case of `CCCCC/C=C1\C(=O)Nc2nc(C)c(O)c(C)c21` [Compound I-01, (Z)-3-Hexylidene-5-hydroxy-4,6-dimethyl-1H-pyrrolo[2,3-b]pyridin-2(3H)-one], the IC50 at 48 h is > 90 µM in data set [1] and 20.9 µM in [5]. Moreover, the cytotoxicity at 30 µM is 77.4% in data set [2] and 76.9% in data set [3]. For the same compound, the IC50 in data set [3] was determined as 13.8 µM; in data set [4], 12.9 µM; in data set [6] it was 7.6 µM; in data set [7] it was 11 µM; in [8], 11.5 µM; in data set [9], 12.6 µM.

On to `COc1ccc(OC)c(/C=C2\C(=O)Nc3nc(C)c(O)c(C)c32)c1` [Compound I-15, (Z)-3-(2,5-Dimethoxybenzylidene)-5-hydroxy-4,6-dimethyl-1H-pyrrolo[2,3-b]pyridin-2(3H)-one], for which the IC50 at 48 h in [1] turned out to be 37.8 µM; in data set [5], 47.5 µM. In addition, the IC50 in data set [2] came to 19.5 µM; in data set [3], 20.9 µM; in [4], 16.6 µM; in [6], 47.5 µM; in data set [7], 5.55 µM; in [8] it was 33 µM. The IC50 in [9] was determined as 22.9 µM. Further, the cytotoxicity at 30 µM in [2] was 69.2%; in [3], 67.5%. The “cytotoxicity compared with the reference drug sunitinib” value in data set [7] is on record as “greater than or equal to that of the reference drug sunitinib”.

Consider `COc1ccc(Br)cc1/C=C1\C(=O)Nc2nc(C)c(O)c(C)c21` [Compound I-17, (Z)-3-(5-bromo-2-methoxybenzylidene)-5-hydroxy-4,6-dimethyl-1H-pyrrolo[2,3-b]pyridin-2(3H)-one], for which the values for the IC50 at 48 h in data set [1] and in [5] were 33 µM and 30.1 µM, respectively. Further, the cytotoxicity at 30 µM is 71.7% in data set [2] and 74.7% in [3]. The IC50 in data set [3] stood at 11 µM; in [4] it was 25.1 µM; in [6], 10.1 µM; in data set [7] it was 4.57 µM; in data set [8] it was 12.6 µM; in data set [9], 10.5 µM. Also, in data set [7], the “cytotoxicity compared with the reference drug sunitinib” value is reported as “greater than or equal to that of the reference drug sunitinib”.

`Cc1nc2c(c(C)c1O)/C(=C/C(c1ccccc1)c1ccccc1)C(=O)N2` [Compound I-19, (Z)-3-(2,2-Diphenylethylidene)-5-hydroxy-4,6-dimethyl-1H-pyrrolo[2,3-b]pyridin-2(3H)-one]: the IC50 at 48 h in data set [1] was determined as 26.2 µM; in [5], 30.1 µM. For the same compound, the IC50 in [2] was 7.41 µM; in data set [3], 6.37 µM; in [4], 11.5 µM; in data set [6] it was 31.5 µM; in [7], 8.77 µM; in data set [8] it was 16.6 µM. This compound displayed an IC50 in data set [9] of 22.9 µM. Besides, the cytotoxicity at 30 µM in [2] amounted to 81.4%; in data set [3] it was 78.1%. In addition, the “cytotoxicity compared with the reference drug sunitinib” value in data set [2] (PANC-1) and in data set [3] (MCF-7) was “greater than or equal to that of the reference drug sunitinib” each time.

Regarding `Cc1nc2c(c(C)c1O)/C(=C/c1cccnc1)C(=O)N2` [Compound I-22, (Z)-5-Hydroxy-4,6-dimethyl-3-(pyridin-3-ylmethylene)-1H-pyrrolo[2,3-b]pyridin-2(3H)-one], the IC50 at 48 h was > 90 µM in data set [1] and 78.5 µM in [5]. Moreover, the cytotoxicity at 30 µM in [2] was found to be 72.7%; in data set [3] it was 78%. Moreover, the IC50 in data set [3] stood at 17.4 µM; in [4], 19.9 µM; in [6] it was 13.8 µM; in data set [7], 1.18 µM; in data set [8], 14.5 µM; in data set [9], 9.61 µM. Besides, the “cytotoxicity compared with the reference drug sunitinib” value in data set [7] was “greater than or equal to that of the reference drug sunitinib”.

As to `Cc1nc2c(c(C)c1O)/C(=C/c1ccncc1)C(=O)N2` [Compound I-23, (Z)-5-Hydroxy-4,6-dimethyl-3-(pyridin-4-ylmethylene)-1H-pyrrolo[2,3-b]pyridin-2(3H)-one], the 50% inhibitory concentration (IC50) at 48 h was determined as 45.7 µM in data set [1] and 57 µM in data set [5]. Besides, the IC50 amounted to 19.1 µM in data set [2]; 19.1 µM in data set [3]; 30.1 µM in [4]; 30.1 µM in data set [6]; 30.1 µM in data set [7]; 34.5 µM in data set [8]. Besides, the cytotoxicity at 30 µM in [2] was determined as 65.4%; in data set [3] it was 63.2%.

Take `Cc1nc2c(c(C)c1O)/C(=C/c1ccoc1)C(=O)N2` [Compound I-28, (Z)-3-(Furan-3-ylmethylene)-5-hydroxy-4,6-dimethyl-1H-pyrrolo[2,3-b]pyridin-2(3H)-one]: the values for the IC50 at 48 h in data set [1] and in data set [5] were 19.9 µM and > 90 µM, respectively. The figures for the cytotoxicity at 30 µM in data set [2] and in data set [3] were 26.1% and 66.3%, respectively. For the same compound, the figures for the IC50 in data set [3], in data set [7] and in data set [8] were 22.9 µM, 22.9 µM and 31.5 µM, respectively.

For `Cc1nc2c(c(C)c1O)/C(=C/c1[nH]c(C)c(C(=O)NCCN3CCCCC3)c1C)C(=O)N2` [Compound I-42, (Z)-5-((5-Hydroxy-4,6-dimethyl-2-oxo-1H-pyrrolo[2,3-b]pyridin-3(2H)-ylidene)methyl)-2,4-dimethyl-N-(2-(piperidin-1-yl)ethyl)-1H-pyrrole-3-carboxamide], the IC50 at 48 h in data set [1] is 21.4 µM; in data set [5] it was 51.3 µM. Also, the cytotoxicity at 30 µM turned out to be 70.7% in [2] and 63.4% in data set [3]. Moreover, the IC50 turned out to be 8.7 µM in [3]; 15.2 µM in [4]; 13.2 µM in data set [6]; 14.8 µM in data set [8]; 8.12 µM in [9].

In the case of `Cc1nc2c(c(C)c1O)/C(=C/c1[nH]c(C)c(C(=O)N3CCCCC3)c1C)C(=O)N2` [Compound I-43, (Z)-3-((3,5-Dimethyl-4-(piperidine-1-carbonyl)-1H-pyrrol-2-yl)methylene)-5-hydroxy-4,6-dimethyl-1H-pyrrolo[2,3-b]pyridin-2(3H)-one], the IC50 at 48 h in data set [1] is > 90 µM; in data set [5] it was 14.8 µM. For the same compound, the cytotoxicity at 30 µM in [2] is 38.5%; in [3], 50.5%. In addition, the half-inhibitory concentration (IC50) in [3] turned out to be 26.9 µM; in data set [4] it was 16.6 µM; in data set [6] it was 12.1 µM; in data set [8], 9.77 µM; in data set [9], 14.8 µM.

`Cc1nc2c(c(C)c1O)/C(=C/c1[nH]c(C)c(C(=O)N3CCCC3)c1C)C(=O)N2` [Compound I-44, (Z)-3-((3,5-Dimethyl-4-(pyrrolidine-1-carbonyl)-1H-pyrrol-2-yl)methylene)-5-hydroxy-4,6-dimethyl-1H-pyrrolo[2,3-b]pyridin-2(3H)-one]: the IC50 at 48 h in data set [1] is > 90 µM; in data set [5], 58.9 µM. Also, the cytotoxicity at 30 µM in data set [2] worked out at 31.8%; in data set [3], 47.7%. Moreover, the IC50 in data set [3] was determined as 34.7 µM; in data set [4] it was 43.4 µM; in [6], 50.1 µM; in data set [8], 52.5 µM; in data set [9], 43.6 µM.

As to `Cc1nc2c(c(C)c1O)/C(=C/c1[nH]c(C)c(C(=O)N3CCN(C)CC3)c1C)C(=O)N2` [Compound I-45, (Z)-3-((3,5-Dimethyl-4-(4-methylpiperazine-1-carbonyl)-1H-pyrrol-2-yl)methylene)-5-hydroxy-4,6-dimethyl-1H-pyrrolo[2,3-b]pyridin-2(3H)-one], the IC50 at 48 h in data set [1] amounted to 38 µM; in data set [5] it was 23.4 µM. Also, the results for the cytotoxicity at 30 µM in [2] and in data set [3] were 48.7% and 60.7%, respectively. Besides, the IC50 in [3] amounted to 10.2 µM; in data set [4], 36.1 µM; in data set [6], 26.3 µM; in data set [8] it was 26.2 µM; in data set [9], 16.2 µM.
